According to PMC7403315, “Cyclic peptide FXII inhibitor provides safe anticoagulation in a thrombosis model and in artificial lungs” (Nature Communications, 2020):
Values joined by “and” are separate entries in the source; they are usually repeats but may differ in a detail not shown here. Equal entries are not always repeated. Starred links: 1 amine or outer side, 2 acyl side, 3 side chain; linkers in the order of their positions; H or OH if unused. Positions of bridges follow the written chain, without caps; N, C: chain ends. Non-standard residues stand in square brackets, D forms with d. Residues, ends and D or L forms follow the SMILES beside them. TATA = O=C(CC[*:1])N1CN(C(=O)CC[*:2])CN(C(=O)CC[*:3])C1; Phe(4-F) = N[C@@H](Cc1ccc(F)cc1)C(=O)O; β3hR = N=C(N)NCCC[C@H](N)CC(=O)O

Assays:
Test in all cases: Specificity profiling, residual protease activity
Assay type in all cases: biochemical
[1] = molecular target: T1, factor Xa (Homo sapiens, UniProt P00742)
T1 construct: (Molecular Innovations) 0.05 nM, factor VIIa (Haematologic Technologies) 50 nM, factor Xa; purchased Haematologic Technologies
T1 sequence (P00742 235-488 limits assumed): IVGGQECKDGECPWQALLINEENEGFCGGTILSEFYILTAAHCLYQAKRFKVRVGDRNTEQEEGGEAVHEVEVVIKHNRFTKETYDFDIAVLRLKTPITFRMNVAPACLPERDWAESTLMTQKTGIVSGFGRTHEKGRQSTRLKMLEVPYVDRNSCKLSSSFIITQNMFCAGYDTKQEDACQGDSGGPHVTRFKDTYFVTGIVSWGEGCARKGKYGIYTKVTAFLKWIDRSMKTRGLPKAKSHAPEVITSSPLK
T1 sequence (P00742 41-179 limits assumed): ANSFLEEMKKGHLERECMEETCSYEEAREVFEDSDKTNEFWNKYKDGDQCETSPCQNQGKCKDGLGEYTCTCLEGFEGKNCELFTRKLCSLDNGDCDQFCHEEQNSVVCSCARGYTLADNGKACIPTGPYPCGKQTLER
Description: (§1) Protease inhibition assays
(§2) The inhibitory activity of peptides was determined by measuring the residual protease activity with a fluorogenic substrate. The assay was performed in buffer containing 10 mM Tris-Cl, pH […]
(§3) 1% (v/v) DMSO in a volume of 150 µl. […]
(§4) HFXIIAB) were used at final concentrations of 0.4 nM. The reaction was pipetted as follows: 50 µl of bicyclic peptide in assay buffer were added to 50 µl of FXIIa in assay buffer and incubated for 10 minutes at 25°C before 50 µl of 150 µM fluorogenic substrate in assay buffer were added to measure the residual protease activity with an Infinite M200Pro fluorescence plate reader (excitation at 368 nm, emission at 467 nm; Tecan) for a period of 30 minutes with a read every minute at 25°C. The Tecan software i-control (version 1.1) was used for data analysis. Stock solutions of 1 mM bicyclic peptide were prepared by either dissolving the unpurified cyclization reaction with water or by dissolving purified and lyophilized peptide in water. The bicyclic peptides were serially diluted two-fold using assay buffer. Sigmoidal curves were fitted to the data using the following dose response equation (1), wherein x = peptide concentration, y = % protease activity, and p = Hill slope. IC50 values were derived from the fitted curve.
(§5) The inhibition constants (Ki) were calculated according to the equation of Cheng and Prusoff, Ki = IC50/(1+([S]0/Km), wherein IC50 is the functional strength of the inhibitor, [S]0 is the total substrate concentration, and Km is the Michaelis-Menten constant. […]
(§6) For testing the specificity of the bicyclic peptides, the following final concentrations of human serine proteases were used: tPA (Molecular Innovations) 7.5 nM, uPA (Molecular Innovations) 1.5 nM, factor XIa (Innovative Research) 6 nM, plasma kallikrein (Innovative Research) 0.25 nM, thrombin (Molecular Innovations) 1 nM, plasmin (Molecular Innovations) 2.5 nM, trypsin (Molecular Innovations) 0.05 nM, factor VIIa (Haematologic Technologies) 50 nM, factor Xa […]
(§7) (Haematologic Technologies) 6 nM, and activated protein C (APC) 5 nM. Two-fold dilutions of the peptide were prepared that ranged from 0.04 to 40 µM. The following fluorogenic substrates were used at a final concentration of 50 µM: Z-Phe-Arg-AMC (Bachem) for plasma kallikrein; Boc-Phe-Ser-Arg-AMC (Bachem) for factor XIa; Z-Gly-Gly-Arg-AMC (Bachem) for tPA, uPA, thrombin, and trypsin; H-D-Val-Leu-Lys-AMC (Bachem) for plasmin; and D-Phe-Pro-Arg-ANSNH-C4H9 (Haematologic Technologies) for FVIIa and FXa. For APC, the chromogenic substrate pyroGlu-Pro-Arg-pNA (S2366) was used at a concentration of 400 µM. […]

[2] = molecular target: T2, plasmin (Homo sapiens, UniProt P00747)
T2 construct: nM, thrombin (Molecular Innovations) 1 nM, plasmin (Molecular Innovations) 2.5 nM, trypsin; purchased Molecular Innovations
T2 sequence (P00747 581-810 limits assumed): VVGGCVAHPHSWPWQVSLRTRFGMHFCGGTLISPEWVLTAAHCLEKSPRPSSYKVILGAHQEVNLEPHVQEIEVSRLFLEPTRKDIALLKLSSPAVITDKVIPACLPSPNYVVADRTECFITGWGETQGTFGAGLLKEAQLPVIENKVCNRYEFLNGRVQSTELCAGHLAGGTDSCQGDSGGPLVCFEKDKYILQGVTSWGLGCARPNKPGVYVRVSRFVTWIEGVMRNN
T2 sequence (P00747 97-580 limits assumed): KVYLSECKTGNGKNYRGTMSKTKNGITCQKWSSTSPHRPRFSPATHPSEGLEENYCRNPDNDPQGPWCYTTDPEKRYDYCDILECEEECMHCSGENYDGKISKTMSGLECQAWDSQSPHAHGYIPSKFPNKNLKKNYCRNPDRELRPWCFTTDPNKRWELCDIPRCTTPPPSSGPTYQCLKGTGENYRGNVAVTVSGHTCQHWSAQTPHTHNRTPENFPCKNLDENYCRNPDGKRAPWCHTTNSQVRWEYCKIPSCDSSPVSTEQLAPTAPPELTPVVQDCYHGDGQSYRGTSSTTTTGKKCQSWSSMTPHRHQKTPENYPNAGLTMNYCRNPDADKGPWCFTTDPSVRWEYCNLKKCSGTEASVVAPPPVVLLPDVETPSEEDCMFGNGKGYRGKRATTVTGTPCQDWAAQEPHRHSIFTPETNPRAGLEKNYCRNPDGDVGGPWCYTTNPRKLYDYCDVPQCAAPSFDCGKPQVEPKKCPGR
Description: as §1, §2, §3, §4, §5, §6, §7

[3] = molecular target: T3, thrombin (Homo sapiens, UniProt P00734)
T3 construct: nM, thrombin (Molecular Innovations) 1 nM, plasmin (Molecular Innovations) 2.5 nM, trypsin; purchased Molecular Innovations
Description: as §1, §2, §3, §4, §5, §6, §7

[4] = molecular target: T4, trypsin (Homo sapiens, UniProt P07477)
T4 construct: purchased Molecular Innovations
Description: as §1, §2, §3, §4, §5, §6, §7

[5] = inhibitor 39.0625 nM, 0.0390625 µM
[6] = inhibitor 78.125 nM, 0.078125 µM
[7] = inhibitor 156.25 nM, 0.15625 µM
[8] = inhibitor 40000 nM (40 µM), 40 µM

CC(C)C[C@@H]1NC(=O)[C@H](CCC(N)=O)NC(=O)[C@H](Cc2c[nH]cn2)NC(=O)[C@@H]2CSCCC(=O)N3CN(CN(C3)C(=O)CCSC[C@H](NC(=O)[C@@H](CO)NC(=O)[C@H](N)CCCNC(=N)N)C(=O)N[C@@H](Cc3ccc(F)cc3)C(=O)N[C@@H](CCCNC(=N)N)C(=O)N[C@@H](CC(C)C)C(=O)N3CCC[C@H]3C(=O)N2)C(=O)CCSC[C@@H](C(N)=O)NC(=O)C[C@H](CCCNC(=N)N)NC1=O [FXII900] (H-[dR][dS]C[Phe(4-F)]RLPCHQL[β3hR]C-NH2; linker 3-8-13 via TATA)
Residual activity of FXa [1, 5]: 101.787% | remaining activity at 0.0390625 µM ([1]; inhibitor 39.0625 nM, read-out: Residual activity of FXa): 94.8% | Residual activity of FXa [1, 6]: 97.2913% | remaining activity at 0.078125 µM ([1]; inhibitor 78.125 nM, read-out: Residual activity of FXa): 93.4% | Residual activity of FXa [1, 7]: 100.804% | remaining activity at 0.15625 µM ([1]; inhibitor 156.25 nM, read-out: Residual activity of FXa): 97.6% | Residual activity of FXa ([1]; inhibitor 312.5 nM, 0.3125 µM): 95.4335% | remaining activity at 0.3125 µM ([1]; inhibitor 312.5 nM, read-out: Residual activity of FXa): 95.1% | Residual activity of FXa ([1]; inhibitor 625 nM, 0.625 µM): 101.673% | remaining activity at 0.625 µM ([1]; inhibitor 625 nM, read-out: Residual activity of FXa): 97.6% | Residual activity of FXa ([1]; inhibitor 1250 nM, 1.25 µM): 99.2096% | remaining activity at 1.25 µM ([1]; inhibitor 1250 nM, read-out: Residual activity of FXa): 99.4% | Residual activity of FXa ([1]; inhibitor 2500 nM, […]): 104.071% | remaining activity at […] ([1]; inhibitor 2500 nM, read-out: Residual activity of FXa): 98.3% | Residual activity of FXa ([1]; inhibitor 5000 nM, 5 µM): 101.691% | remaining activity at 5 µM ([1]; inhibitor 5000 nM, read-out: Residual activity of FXa): 94.7% | Residual activity of FXa ([1]; inhibitor 10000 nM, 10 µM): 102.146% | remaining activity at 10 µM ([1]; inhibitor 10000 nM, read-out: Residual activity of FXa): 99.4% | Residual activity of FXa ([1]; inhibitor 20000 nM, 20 µM): 104.386% | remaining activity at 20 µM ([1]; inhibitor 20000 nM, read-out: Residual activity of FXa): 94.7% | Residual activity of FXa [1, 8]: 96.1187% and 97.9911% | remaining activity at 40 µM ([1]; inhibitor 40000 nM (40 µM), read-out: Residual activity of FXa): 97.1% | Ki ([1]; read-out: Ki FXa): > 40 µM | Ki [2]: > 40 µM | remaining activity at 0.0390625 µM ([2]; inhibitor 39.0625 nM): 101% | Residual activity of Plasmin [2, 5]: 100% and 98.04% | remaining activity at 0.078125 µM ([2]; inhibitor 78.125 nM): 99.7% | Residual activity of Plasmin [2, 6]: 92.966% and 98.2808% | remaining activity at 0.15625 µM ([2]; inhibitor 156.25 nM): 99.4% | Residual activity of Plasmin [2, 7]: 100.413% and 98.2682% | remaining activity at 0.3125 µM ([2]; inhibitor 312.5 nM): 98.2% | Residual activity of Plasmin ([2]; inhibitor 312.5 nM, 0.3125 µM): 95.1408% and 95.4545% | remaining activity at 0.625 µM ([2]; inhibitor 625 nM): 98.8% | Residual activity of Plasmin ([2]; inhibitor 625 nM, 0.625 µM): 96.2495% and 97.8119% | remaining activity at 1.25 µM ([2]; inhibitor 1250 nM): 95.1% | Residual activity of Plasmin ([2]; inhibitor 1250 nM, 1.25 µM): 99.629% and 97.1835% | remaining activity at […] ([2]; inhibitor 2500 nM): 92% | remaining activity at 5 µM ([2]; inhibitor 5000 nM): 96% | Residual activity of Plasmin ([2]; inhibitor 5000 nM, 5 µM): 97.8045% and 97.3192% | remaining activity at 10 µM ([2]; inhibitor 10000 nM): 93.7% | Residual activity of Plasmin ([2]; inhibitor 10000 nM, 10 µM): 101.477% and 94.8276% | remaining activity at 20 µM ([2]; inhibitor 20000 nM): 87.5% | Residual activity of Plasmin ([2]; inhibitor 20000 nM, 20 µM): 91.7224% and 90.5875% | remaining activity at 40 µM ([2]; inhibitor 40000 nM (40 µM)): 86 ± 5% | Residual activity of Plasmin [2, 8]: 82.6102% and 91.6986% and 84.2986% | Ki [3]: > 40 µM | remaining activity at 0.0390625 µM ([3]; inhibitor 39.0625 nM): 101% | Residual activity of Thrombin [3, 5]: 100% | remaining activity at 0.078125 µM ([3]; inhibitor 78.125 nM): 103% | Residual activity of Thrombin [3, 6]: 98.3135% | remaining activity at 0.15625 µM ([3]; inhibitor 156.25 nM): 105% | Residual activity of Thrombin [3, 7]: 102.594% | remaining activity at 0.3125 µM ([3]; inhibitor 312.5 nM): 104% | Residual activity of Thrombin ([3]; inhibitor 312.5 nM, 0.3125 µM): 101.218% | remaining activity at 0.625 µM ([3]; inhibitor 625 nM): 102% | Residual activity of Thrombin ([3]; inhibitor 625 nM, 0.625 µM): 96.4184% | remaining activity at 1.25 µM ([3]; inhibitor 1250 nM): 105% | Residual activity of Thrombin ([3]; inhibitor 1250 nM, 1.25 µM): 102.09% | remaining activity at […] ([3]; inhibitor 2500 nM): 103% | Residual activity of Thrombin ([3]; inhibitor 2500 nM, […]): 101.007% | remaining activity at 5 µM ([3]; inhibitor 5000 nM): 105% | Residual activity of Thrombin ([3]; inhibitor 5000 nM, 5 µM): 93.4869% | remaining activity at 10 µM ([3]; inhibitor 10000 nM): 99% | Residual activity of Thrombin ([3]; inhibitor 10000 nM, 10 µM): 98.045% | remaining activity at 20 µM ([3]; inhibitor 20000 nM): 102% | Residual activity of Thrombin ([3]; inhibitor 20000 nM, 20 µM): 95.8152% | remaining activity at 40 µM ([3]; inhibitor 40000 nM (40 µM)): 95% | Residual activity of Thrombin [3, 8]: 99.0803% and 90.0661% | Ki [4]: 1.46 µM | remaining activity at 0.0390625 µM ([4]; inhibitor 39.0625 nM): 99% | Residual activity of Trypsin [4, 5]: 98.1138% | remaining activity at 0.078125 µM ([4]; inhibitor 78.125 nM): 100% | Residual activity of Trypsin [4, 6]: 99.9393% | remaining activity at 0.15625 µM ([4]; inhibitor 156.25 nM): 91.6% | Residual activity of Trypsin [4, 7]: 92.2203% | remaining activity at 0.3125 µM ([4]; inhibitor 312.5 nM): 86% | Residual activity of Trypsin ([4]; inhibitor 312.5 nM, 0.3125 µM): 88.4651% | remaining activity at 0.625 µM ([4]; inhibitor 625 nM): 77.9% | Residual activity of Trypsin ([4]; inhibitor 625 nM, 0.625 µM): 73.7094% | remaining activity at 1.25 µM ([4]; inhibitor 1250 nM): 64% | Residual activity of Trypsin ([4]; inhibitor 1250 nM, 1.25 µM): 61.5181% | remaining activity at […] ([4]; inhibitor 2500 nM): 47.5% | Residual activity of Trypsin ([4]; inhibitor 2500 nM, […]): 46.5602% | remaining activity at 5 µM ([4]; inhibitor 5000 nM): 34.6% | Residual activity of Trypsin ([4]; inhibitor 5000 nM, 5 µM): 30.2825% | remaining activity at 10 µM ([4]; inhibitor 10000 nM): 21% | Residual activity of Trypsin ([4]; inhibitor 10000 nM, 10 µM): 19.2935% | remaining activity at 20 µM ([4]; inhibitor 20000 nM): 12.9% | Residual activity of Trypsin ([4]; inhibitor 20000 nM, 20 µM): 12.2739% | remaining activity at 40 µM ([4]; inhibitor 40000 nM (40 µM)): 9.2% | Residual activity of Trypsin [4, 8]: 9.912% and 8.397%
